{"source": "patent US9073967B2", "about": "“High salt-resistance antibacterial peptide and method for producing the same” (NATIONAL TSING HUA UNIVERSITY, priority 2011, dated 2015)", "key": {"[1]": {"system": "C. albicans ATCC 90028 YLO12", "assay": "microbe, parasite or virus in culture", "conditions": "Candida albicans, ATCC90028"}, "[2]": {"system": "C. tropicalis ATCC 13803 YLO86", "assay": "microbe, parasite or virus in culture", "conditions": "Candida tropicalis, ATCC13803"}, "[3]": {"system": "C. glabrata ATCC 9003 YLO8", "assay": "microbe, parasite or virus in culture", "conditions": "Nakaseomyces glabratus, ATCC9003"}, "[4]": {"system": "C. tropicalis HIV patient YHO50114", "assay": "organism not typed"}, "[5]": {"system": "C. albicans HIV patient YHO50005", "assay": "organism not typed"}, "[6]": {"system": "C. krusei HIV patient YHO50075", "assay": "organism not typed"}, "[7]": {"system": "C. tropicalis HIV patient YHO50013", "assay": "organism not typed"}, "[8]": {"system": "C. tropicalis HIV patient YHO50007", "assay": "organism not typed"}, "[9]": {"system": "C. dubliniensis HIV patient YHO50092", "assay": "organism not typed"}, "[10]": {"system": "C. parapsilosis ATCC 22019 YLO7", "assay": "microbe, parasite or virus in culture", "conditions": "Lodderomyces parapsilosis, ATCC22019"}, "[11]": {"system": "C. albicans HIV patient YHO50072", "assay": "organism not typed"}, "[12]": {"system": "C. albicans HIV patient YHO50001", "assay": "organism not typed"}, "[13]": {"system": "C. glabrata HIV patient YHO50105", "assay": "organism not typed"}, "C. krusei ATCC 6258 YLO6": {"system": "C. krusei ATCC 6258 YLO6", "assay": "microbe, parasite or virus in culture", "conditions": "Pichia kudriavzevii, ATCC6258"}}, "data": [{"smiles": "OC(Cn1cncn1)(Cn1cncn1)c1ccc(F)cc1F", "note": "[Flu, fluconazole]", "values": [{"measurement": "MIC", "setting": "[1]", "value": 1, "unit": "µg/mL"}, {"measurement": "MIC", "setting": "[2]", "value": "> 64", "unit": "µg/mL"}, {"measurement": "MIC", "setting": "[3]", "value": 16, "unit": "µg/mL"}, {"measurement": "MIC", "setting": "[4]", "value": "> 64", "unit": "µg/mL"}, {"measurement": "MIC", "setting": "[5]", "value": 1, "unit": "µg/mL"}, {"measurement": "MIC", "setting": "[6]", "value": 64, "unit": "µg/mL"}, {"measurement": "MIC", "setting": "[7]", "value": "> 64", "unit": "µg/mL"}, {"measurement": "MIC", "setting": "[8]", "value": "> 64", "unit": "µg/mL"}, {"measurement": "MIC", "setting": "[9]", "value": 0.5, "unit": "µg/mL"}, {"measurement": "MIC", "setting": "[10]", "value": 8, "unit": "µg/mL"}, {"measurement": "MIC", "setting": "[11]", "value": "> 64", "unit": "µg/mL"}, {"measurement": "MIC", "setting": "[12]", "value": 2, "unit": "µg/mL"}, {"measurement": "MIC", "setting": "[13]", "value": 16, "unit": "µg/mL"}, {"measurement": "MIC", "setting": "C. krusei ATCC 6258 YLO6", "value": 32, "unit": "µg/mL"}]}]}
